We go through 41 compounds from ChEMBL document CHEMBL3045758, “Quantitative Structure-Activity Relationships of Fungicidal N-Phenylformamidoximes” (J Pestic Sci, 1992).

Series [1] in a line: 1-octanol/water distribution coefficient, log P of the compound. The format is physicochemical.
The test system of the next series is Phaseolus vulgaris. Description: Phytotoxicity against Phaseolus vulgaris (kidney bean) assessed as necrosis of leaf at 100 ppm after 7 days in greenhouse conditions. The format is organism-based. The settings on record: in vivo, 168 h.
Series [2] has as its system Botrytis cinerea. Description: Fungicidal activity against benzimidazole-resistant Botryotinia fuckeliana after 48 hr by poisoned food technique. The format is functional, organism-based. The settings on record: Botrytis cinerea, 48 h; read-out: pEC50 (converted).
The subject of series [3] is Botrytis cinerea. Description: Fungicidal activity against benzimidazole-resistant Botryotinia fuckeliana infected kidney bean leaf at 100 ppm after 7 days in greenhouse conditions by detached leaf test. The format is functional.
Series [4] has as its system Botrytis cinerea. Description: Fungicidal activity against benzimidazole-resistant Botryotinia fuckeliana at 6.2 ppm after 48 hr by poisoned food technique. The format is functional.
In series [5] the test system is Botrytis cinerea. Description: Fungicidal activity against benzimidazole-resistant Botryotinia fuckeliana at 200 ppm after 48 hr by poisoned food technique. The format is functional.
The subject of series [6] is Botrytis cinerea. Description: Fungicidal activity against benzimidazole-resistant Botryotinia fuckeliana at 25 ppm after 48 hr by poisoned food technique. The format is functional.

On to `C#CCc1c(Cl)cc(N/C=N/OC(C)C)cc1Cl`, for which the logP in series [1] was 3.9. For the same compound, the Activity entry in the series with Phaseolus vulgaris is on record as “Non-toxic”. Besides, in the series with Botrytis cinerea [2], the EC50 is 0.0331 µM.

For the compound `C#CCc1c(Cl)cc(N/C=N/OCC=C)cc1Cl`, the log partition coefficient (logP) in series [1] amounted to 3.7. Also, in the series on Phaseolus vulgaris, the Activity entry was “Non-toxic”. In addition, in the series with Botrytis cinerea [2], the EC50 was 0.0676 µM.

With `C#CCO/N=C/Nc1cc(Cl)c(CC#C)c(Cl)c1`, in series [1], the logP came out at 3.3. In addition, the Activity result with Phaseolus vulgaris is given as “Non-toxic”. Moreover, the EC50 with Botrytis cinerea [2] was 0.0339 µM.

Take `C#CCc1c(Cl)cc(N/C=N/OCCCC)cc1Cl`: the logP in series [1] is 4.4. Further, the Activity result with Phaseolus vulgaris is on record as “Non-toxic”. For the same compound, the EC50 in the series with Botrytis cinerea [2] was 0.316 µM.

`C#CCc1c(Cl)cc(N/C=N/OC(C)CC)cc1Cl` (stereo unspecified) registered a lipophilicity (logP) in series [1] of 4.2. Besides, the Activity entry with Phaseolus vulgaris is “Non-toxic”. Moreover, the EC50 in the series on Botrytis cinerea [2] is 0.158 µM.

As to `C#CCc1c(Cl)cc(N/C=N/OCC#N)cc1Cl`, the logP in series [1] was determined as 3. For the same compound, the Activity entry with Phaseolus vulgaris was “Non-toxic”. Further, in the series on Botrytis cinerea [2], the EC50 was 0.0339 µM.

As to `C#CCc1c(Cl)cc(N/C=N/OCOC)cc1Cl`, the logP in series [1] came to 3.2. The Activity result with Phaseolus vulgaris is listed as “Non-toxic”. Moreover, the EC50 in the series with Botrytis cinerea [2] was 0.0331 µM.

In series [1], `C#CCc1c(Cl)cc(N/C=N/OCSC)cc1Cl` registered a lipophilicity (logP) of 3.6. For the same compound, the Activity entry with Phaseolus vulgaris is on record as “Non-toxic”. Moreover, the EC50 with Botrytis cinerea [2] is 0.0316 µM.

`C#CCc1c(Cl)cc(N/C=N/OCOCC)cc1Cl` returned a log partition coefficient (logP) in series [1] of 3.5. The Activity entry in the series with Phaseolus vulgaris was “Non-toxic”. Besides, the EC50 in the series with Botrytis cinerea [2] is 0.0631 µM.

As to `C#CCc1c(Cl)cc(N/C=N/OCC(=O)OCC)cc1Cl`, the logP in series [1] came out at 3.6. Moreover, in the series on Phaseolus vulgaris, the Activity entry is listed as “Non-toxic”. In the series on Botrytis cinerea [2], the EC50 was 1.45 µM.

In series [1], `C#CCc1c(Cl)cc(N/C=N/OCCCl)cc1Cl` showed a log partition coefficient (logP) of 3.7. Moreover, the Activity entry with Phaseolus vulgaris is “Non-toxic”. In addition, in the series with Botrytis cinerea [2], the EC50 is 0.0309 µM.

Compound `C#CCc1c(Cl)cc(N/C=N/OCCOCC)cc1Cl` registered a logP in series [1] of 3.7. Moreover, the Activity entry in the series on Phaseolus vulgaris is listed as “Non-toxic”. Further, the EC50 with Botrytis cinerea [2] was 0.0603 µM.

Take `C#CCc1c(Cl)cc(N/C=N/OC/C=C\Cl)cc1Cl`: in series [1], the log partition coefficient (logP) came out at 3.9. The Activity entry in the series with Phaseolus vulgaris was “Non-toxic”. In addition, the EC50 in the series on Botrytis cinerea [2] is 0.0603 µM.

In the case of `C#CCc1c(Cl)cc(N/C=N/OC/C=C/Cl)cc1Cl`, the log partition coefficient (logP) in series [1] was determined as 3.9. The Activity result in the series with Phaseolus vulgaris is on record as “Non-toxic”. For the same compound, the EC50 with Botrytis cinerea [2] was 0.302 µM.

In series [1], `C#CCc1c(Cl)cc(N/C=N/OCc2ccccc2)cc1Cl` returned a lipophilicity (logP) of 4.2. Also, in the series with Phaseolus vulgaris, the Activity entry is reported as “Non-toxic”. Further, the EC50 in the series on Botrytis cinerea [2] is 2.88 µM.

`C#CCc1c(Cl)cc(N/C=N/Oc2ccccc2)cc1Cl`: in series [1], the logP was 4.4. Moreover, the Activity entry with Phaseolus vulgaris was “Non-toxic”. The EC50 in the series with Botrytis cinerea [2] was 0.295 µM.

Consider `C#CCc1c(Cl)cc(N/C=N/Oc2ccc(C)cc2)cc1Cl`, for which the lipophilicity (logP) in series [1] amounted to 4.8. The Activity entry in the series with Phaseolus vulgaris is listed as “Non-toxic”. Moreover, the EC50 with Botrytis cinerea [2] is 0.851 µM.

In the case of `CCO/N=C/Nc1ccc(OCC)c(OCC)c1`, the Activity entry was “Non-toxic” in the series on Phaseolus vulgaris; 50% with Botrytis cinerea [3]; 26% in the series with Botrytis cinerea [4]; 100% in the series with Botrytis cinerea [5]; 70% in the series with Botrytis cinerea [6].

Turning to `CCO/N=C/Nc1cc(Cl)c(OCC)c(Cl)c1OCC`, the Activity result in the series on Phaseolus vulgaris was “Non-toxic”; with Botrytis cinerea [3], below 25%; in the series on Botrytis cinerea [4], below 25%; in the series with Botrytis cinerea [5], 50%; in the series on Botrytis cinerea [6], below 25%.

Consider `CCO/N=C/Nc1cc(Cl)c(F)c(Cl)c1`, for which the logP in series [1] was found to be 4. Also, the Activity entry with Phaseolus vulgaris is reported as “<= 10%”. In the series with Botrytis cinerea [2], the EC50 was 0.794 µM.

In series [1], `CCO/N=C/Nc1cc(Cl)c(CC)c(Cl)c1` had a logP of 4.8. In addition, in the series on Phaseolus vulgaris, the Activity entry is “Non-toxic”. The EC50 in the series on Botrytis cinerea [2] is 0.389 µM.

Compound `CCCCc1c(Cl)cc(N/C=N/OCC)cc1Cl` had a logP in series [1] of 5.6. Besides, the Activity result in the series on Phaseolus vulgaris is listed as “Non-toxic”. In the series on Botrytis cinerea [2], the EC50 is 1.74 µM.

In the case of `CCO/N=C/Nc1cc(Cl)c(SCC)c(Cl)c1`, the logP in series [1] amounted to 4.6. For the same compound, the Activity result in the series with Phaseolus vulgaris was “Non-toxic”. For the same compound, the EC50 in the series on Botrytis cinerea [2] is 0.17 µM.

In the case of `CCO/N=C/Nc1cc(Cl)c(SSCC)c(Cl)c1`, in series [1], the lipophilicity (logP) stood at 5. In addition, the Activity result in the series on Phaseolus vulgaris is “Non-toxic”. In addition, the EC50 in the series on Botrytis cinerea [2] was 0.617 µM.

In series [1], `CCO/N=C/Nc1cc(Cl)c([S+]([O-])CC)c(Cl)c1` (stereo unspecified) displayed a logP of 2.9. Further, the Activity entry in the series on Phaseolus vulgaris is “Non-toxic”. The EC50 in the series on Botrytis cinerea [2] is 162 µM.

As for `CCO/N=C/Nc1cc(Cl)c(S(=O)(=O)CC)c(Cl)c1`, the logP in series [1] stood at 2.8. The Activity entry in the series with Phaseolus vulgaris is listed as “<= 10%”. Moreover, in the series with Botrytis cinerea [2], the EC50 was 30.9 µM.

In series [1], `CCO/N=C/Nc1cc(Cl)c(O)c(Cl)c1` returned a logP of 2.8. In the series with Phaseolus vulgaris, the Activity entry is “Non-toxic”. Further, in the series with Botrytis cinerea [2], the EC50 was 0.794 µM.

Consider `CCO/N=C/Nc1cc(Cl)c(OC)c(Cl)c1`, for which, in series [1], the logP is 3.7. Further, the Activity entry in the series with Phaseolus vulgaris was “Non-toxic”. Also, the EC50 with Botrytis cinerea [2] was 0.191 µM.

For `CCCOc1c(Cl)cc(N/C=N/OCC)cc1Cl`, the logP in series [1] was 4.6. In addition, the Activity entry in the series with Phaseolus vulgaris was “Non-toxic”. Further, the EC50 with Botrytis cinerea [2] was 0.174 µM.

Take `CCO/N=C/Nc1cc(Cl)c(OC(C)C)c(Cl)c1`: in series [1], the logP came out at 4.4. Also, the Activity result with Phaseolus vulgaris was “<= 10%”. Besides, the EC50 in the series on Botrytis cinerea [2] was 6.92 µM.

In the case of `C=CCOc1c(Cl)cc(N/C=N/OCC)cc1Cl`, in series [1], the logP was found to be 4.3. For the same compound, the Activity result in the series on Phaseolus vulgaris is “Non-toxic”. Besides, in the series on Botrytis cinerea [2], the EC50 was 0.0347 µM.

Compound `C#CCOc1c(Cl)cc(NC=NOCC)cc1Cl` returned a logP in series [1] of 3.6. The Activity result in the series on Phaseolus vulgaris is “Non-toxic”. In addition, in the series on Botrytis cinerea [2], the EC50 is 0.0174 µM.

On to `CCO/N=C/Nc1cc(Cl)c(OCC(C)C)c(Cl)c1`, for which, in series [1], the logP stood at 5. In the series with Phaseolus vulgaris, the Activity entry is listed as “<= 10%”. For the same compound, the EC50 in the series with Botrytis cinerea [2] was 16.2 µM.

In series [1], `CC#CCOc1c(Cl)cc(N/C=N/OCC)cc1Cl` registered a lipophilicity (logP) of 4. Also, in the series on Phaseolus vulgaris, the Activity result was “Non-toxic”. For the same compound, the EC50 in the series with Botrytis cinerea [2] was 0.166 µM.

With `CCO/N=C/Nc1cc(Cl)c(OCC#N)c(Cl)c1`, in series [1], the logP was determined as 3.1. Further, the Activity entry in the series on Phaseolus vulgaris is given as “Non-toxic”. Moreover, in the series with Botrytis cinerea [2], the EC50 was 0.174 µM.

For `CCO/N=C/Nc1cc(Cl)c(OCOC)c(Cl)c1`, the log partition coefficient (logP) in series [1] amounted to 3.7. Besides, in the series on Phaseolus vulgaris, the Activity entry is “Non-toxic”. The EC50 in the series on Botrytis cinerea [2] is 0.174 µM.

In series [1], `CCO/N=C/Nc1cc(Cl)c(OCCCl)c(Cl)c1` showed a logP of 4. In the series with Phaseolus vulgaris, the Activity entry was “Non-toxic”. Further, the EC50 in the series on Botrytis cinerea [2] was 0.0324 µM.

Regarding `C#CCc1c(Cl)cc(N/C=N/O)cc1Cl`, the logP in series [1] turned out to be 2.8. The Activity entry in the series on Phaseolus vulgaris is on record as “Non-toxic”. Besides, the EC50 in the series on Botrytis cinerea [2] is 0.0776 µM.

In turn, `C#CCc1c(Cl)cc(N/C=N/OCCC)cc1Cl` displayed a logP in series [1] of 4. For the same compound, the Activity result in the series on Phaseolus vulgaris is listed as “Non-toxic”. The EC50 in the series with Botrytis cinerea [2] is 0.0331 µM.

Turning to `CCO/N=C/Nc1cc(C)cc(C)c1`, the Activity result in the series with Phaseolus vulgaris is recorded as “Non-toxic”; in the series with Botrytis cinerea [3], below 25%; with Botrytis cinerea [4], below 25%; in the series with Botrytis cinerea [5], 90%; in the series with Botrytis cinerea [6] it was below 25%.

As for `CCO/N=C/Nc1cc(OCC)ccc1OCC`, the Activity entry in the series on Phaseolus vulgaris is given as “Non-toxic”; in the series on Botrytis cinerea [3], below 25%; in the series with Botrytis cinerea [4], 70%; in the series with Botrytis cinerea [5], 100%; in the series with Botrytis cinerea [6] it was 100%.
